{"source": "patent US5961978A", "about": "“Therapeutically useful peptides and peptide fragments” (Norsk Hydro, a.s., priority 1991, dated 1999)", "key": {"HLA-DQ": {"system": "HLA-DQ", "assay": "Peptide inhibition study, clone E as indicator responder cell (binding of peptide 43 to HLA-DQ)", "type": "cell-based, human", "conditions": "FIG. 7; 5 μmolar peptide 43, 250 μmolar inhibitory peptide", "from_the_text": "Conditions are otherwise as described in FIG. 4.\nFive μmolar concentration of stimulatory peptide (peptide 43) and 250 μmolar of the inhibitory peptides were used. Conditions were otherwise as described in FIG. 4. Note: Peptide 65 and 81 are non-stimulatory in a concentration of 10 μmolar (FIG. 6), but are stimulatory in a concentration of 250 μmolar.\nIn order to map peptide binding to HLA-DR and HLA-DQ, we tested the non-stimulatory p21 ras peptides for capacity to inhibit the binding of peptide 42 to HLA-DR, using stimulation of clone I as indicator system, and inhibition of peptide 43 binding to HLA-DQ using stimulation of clone E as an indicator system."}, "DR1": {"system": "DR1", "type": "binding, human", "conditions": "indicator iodinated P34, tested 0,33-10 μM"}, "DQw6": {"target": "DQw6", "assay": "Inhibition of binding of iodinated indicator peptide P104 to affinity purified HLA DQw6", "set-up": "species or system human", "conditions": "tested 0,33-10 μM"}, "T cell clone F": {"system": "T cell clone F", "assay": "T cell proliferation assay, clone F", "type": "cell-based, human", "conditions": "for stimulation of clone F by truncated forms of peptide 45: 10 μmolar", "procedure": "(§1) FIG. 2 and FIGS. 2a-2e show the specificity of the T cell clones I, B, E and F in T cell proliferation assays. Assays were set up in triplicate in 96 well plates, with the five peptides present in the original peptide mixture as stimulating antigens. The wells contained 50000 irradiated (8000 R) autologous EBV transformed B cells as antigen presenting cells (APC).\n(§2) Cultures were incubated for 2 days at 37° C. in a 5% CO2 incubator, and pulsed overnight with 1 μCi of ^3 H-thymidine (Amersham, England) per well before harvesting onto glass fibre filters by an automated cell harvester (Scatron, Lierbyen, Norway). Thymidine incorporation into DNA was quantitated by liquid scintillation counting using an LKB 1205 Betaplate Liquid Scintillation counter. Data are given as medians of triplicate cultures. Controls included T cell clones cultured alone, or with APC in the absence of peptides. The panels are scaled according to the magnitude of the positive response.\nThe conditions of the assay were exactly as described in FIG. 6.\nThe peptide concentration was as given in the Figure, and the conditions of the assay were otherwise as described for FIG. 6."}, "T cell clone E": {"system": "T cell clone E", "assay": "T cell proliferation assay, clone E", "type": "cell-based, human", "procedure": "as §1, §2\nThe conditions of the assay were as described in FIG. 2. […]"}}, "note": "Where no end group is shown, it is not given here.", "data": [{"substance": "AGVVGKSALAL [compound 68, N-terminally truncated form of peptide 43]", "values": [{"measurement": "inhibition of clone E response to peptide 43 by truncated peptides", "setting": "HLA-DQ", "value": "inhibit"}]}, {"substance": "GAGVVGKSALAL [compound 67, N-terminally truncated form of peptide 43]", "values": [{"measurement": "inhibition of clone E response to peptide 43 by truncated peptides", "setting": "HLA-DQ", "value": "inhibit"}]}, {"substance": "P104: printed Y----------- (SEQ ID NO. 93); iodinated P104 was the indicator peptide for binding to DQw6 (YVVVGAAGVGKSA; also: iodinated) [reference compound]", "values": [{"measurement": "IC50", "setting": "DR1", "value": 0.78, "unit": "µM"}, {"measurement": "IC50", "setting": "DQw6", "value": "< 0.33", "unit": "µM"}]}, {"substance": "VGAGVVGKSALAL [compound 66, N-terminally truncated form of peptide 43]", "values": [{"measurement": "inhibition of clone E response to peptide 43 by truncated peptides", "setting": "HLA-DQ", "value": "inhibit"}]}, {"substance": "VVGAAGVGKS [P88]", "values": [{"measurement": "dose-response of clone F, potency compared to peptide 45", "setting": "T cell clone F; FIG. 16", "value": "far less potent"}, {"measurement": "IC50", "setting": "DQw6", "value": 8.97, "unit": "µM"}]}, {"substance": "VVGAAGVGKSA [p90]", "values": [{"measurement": "IC50", "setting": "DQw6", "value": 9.98, "unit": "µM"}]}, {"substance": "VVGAAGVGKSALAL [compound 70, N-terminally truncated form of peptide 45]", "values": [{"measurement": "stimulation of clone F by truncated forms of peptide 45", "setting": "T cell clone F", "value": "stimulate"}]}, {"substance": "VVGAGVVGKSALAL [compound 65, N-terminally truncated form of peptide 43]", "values": [{"measurement": "stimulation of clone E by truncated forms of peptide 43", "setting": "T cell clone E; 10 μmolar", "value": "non-stimulatory"}, {"measurement": "stimulation of clone E by truncated forms of peptide 43", "setting": "T cell clone E; 250 μmolar", "value": "become stimulatory"}, {"measurement": "stimulation of clone E by truncated forms of peptide 43", "setting": "T cell clone E; 250 μmolar, listed as Peptide 65", "value": "stimulatory"}]}, {"substance": "VVVGAAGVGKS [P89]", "values": [{"measurement": "IC50", "setting": "DQw6", "value": 10, "unit": "µM"}]}, {"substance": "VVVGAAGVGKSA [p91]", "values": [{"measurement": "IC50", "setting": "DQw6", "value": 1.29, "unit": "µM"}]}, {"substance": "VVVGAAGVGKSALAL [compound 69, N-terminally truncated form of peptide 45]", "values": [{"measurement": "stimulation of clone F by truncated forms of peptide 45", "setting": "T cell clone F", "value": "stimulate"}]}, {"substance": "VVVGAGVVGKSALAL [compound 64, N-terminally truncated form of peptide 43]", "values": [{"measurement": "stimulation of clone E by truncated forms of peptide 43", "setting": "T cell clone E; 10 μmolar", "value": "stimulate"}]}]}
